# Measurements: PubChem BioAssay AID2019 (NMMLSC, 2009)
# Biological target: Cell division control protein 42 homolog (Homo sapiens) (UniProt P60953)
# Test: wildtype Cdc42 GTP-binding inhibitors, SAR follow-up, biochemical, pyrazoline analogs, multiplex bead flow cytometry, Ki (AID 2019)
# Conditions: bead-based flow cytometry, Bodipy-FL-GTP binding; Ki calculated from EC50
# Cell division control protein 42 homolog (Homo sapiens), sequence (P60953 whole entry, looked up): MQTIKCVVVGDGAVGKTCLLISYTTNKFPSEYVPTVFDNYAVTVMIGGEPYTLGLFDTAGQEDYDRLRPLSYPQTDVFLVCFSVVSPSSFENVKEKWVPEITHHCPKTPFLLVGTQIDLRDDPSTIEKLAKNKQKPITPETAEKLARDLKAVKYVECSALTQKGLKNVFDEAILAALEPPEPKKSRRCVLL
row,SMILES,Ki [nM]
1,COc1ccc(C2CC(c3ccc(F)cc3)=NN2c2ccc(S(N)(=O)=O)cc2)cc1 (stereo unspecified),900
2,COc1ccc(C2CC(c3cccc(OC)c3)=NN2c2ccc(S(N)(=O)=O)cc2)cc1 (stereo unspecified),310
3,COc1ccc(C2CC(c3ccsc3)=NN2c2ccc(S(N)(=O)=O)cc2)cc1 (stereo unspecified),1540
4,COc1ccc(C2CC(c3ccc(Cl)cc3)=NN2c2ccc(S(N)(=O)=O)cc2)cc1 (stereo unspecified),490
5,COc1ccc(C2CC(c3cccc(F)c3)=NN2c2ccc(S(N)(=O)=O)cc2)cc1 (stereo unspecified),610
6,COc1ccc(-c2cc(-c3ccccc3)nn2-c2ccc(S(N)(=O)=O)cc2)cc1,1070
7,O=S(=O)(c1ccc(N2N=C(c3ccccc3)CC2c2ccccc2)cc1)C(F)F (stereo unspecified),50
8,NS(=O)(=O)c1ccc(N2N=C(c3ccccc3)CC2c2ccc(Br)cc2)cc1 (stereo unspecified),230
9,COc1ccc(C2CC(c3ccccc3Br)=NN2c2ccc(S(N)(=O)=O)cc2)cc1 (stereo unspecified),710
10,NS(=O)(=O)c1ccc(N2N=C(c3ccc(Cl)cc3)CC2c2ccccc2)cc1 (stereo unspecified),700
11,COc1ccc(C2CC(c3ccc(N(C)C)cc3)=NN2c2ccc(S(N)(=O)=O)cc2)cc1 (stereo unspecified),710
12,NS(=O)(=O)c1ccc(N2N=C(c3ccccc3)CC2c2cccc(Cl)c2)cc1 (stereo unspecified),700
13,COc1ccc(C2=NN(c3ccc(S(N)(=O)=O)cc3)C(c3ccc(OC)cc3)C2)cc1 (stereo unspecified),540
14,COc1ccc(C2CC(c3cccnc3)=NN2c2ccc(S(N)(=O)=O)cc2)cc1 (stereo unspecified),2010
15,COc1ccc(C2CC(c3cccc(Cl)c3)=NN2c2ccc(S(N)(=O)=O)cc2)cc1 (stereo unspecified),270
16,Cc1cccc(C2CC(c3ccccc3)=NN2c2ccc(S(N)(=O)=O)cc2)c1 (stereo unspecified),1060
17,COc1ccc(C2CC(c3cccc(C(F)(F)F)c3)=NN2c2ccc(S(N)(=O)=O)cc2)cc1 (stereo unspecified),660
18,COc1cccc(C2CC(c3ccccc3)=NN2c2ccc(S(N)(=O)=O)cc2)c1 (stereo unspecified),1010

row,SMILES,Ki [nM]
1,NS(=O)(=O)c1ccc(N2N=C(c3ccccc3)CC2c2cccc(Br)c2)cc1 (stereo unspecified),700
2,COc1ccc(C2CC(c3ccccc3)=NN2c2ccc(S(N)(=O)=O)cc2)cc1OC (stereo unspecified),1210
3,COc1ccc(C2CC(c3cccc(C)c3)=NN2c2ccc(S(N)(=O)=O)cc2)cc1 (stereo unspecified),800
4,COc1ccc(C2CC(c3ccccc3OC)=NN2c2ccc(S(N)(=O)=O)cc2)cc1 (stereo unspecified),1270
5,COc1ccc(C2CC(c3cccs3)=NN2c2ccc(S(N)(=O)=O)cc2)cc1 (stereo unspecified),620
6,COc1ccc(C2CC(c3ccccc3C)=NN2c2ccc(S(N)(=O)=O)cc2)cc1 (stereo unspecified),870
7,COc1ccc(C2CC(c3cccc(Br)c3)=NN2c2ccc(S(N)(=O)=O)cc2)cc1 (stereo unspecified),440
8,COc1ccc(C2CC(c3ccccc3F)=NN2c2ccc(S(N)(=O)=O)cc2)cc1 (stereo unspecified),590
9,COc1ccc(C2CC(c3ccc(Br)cc3)=NN2c2ccc(S(N)(=O)=O)cc2)cc1 (stereo unspecified),630
10,COc1ccc(C2CC(c3ccc(C)cc3)=NN2c2ccc(S(N)(=O)=O)cc2)cc1 (stereo unspecified),470
11,COc1ccc(C2=NN(c3ccccc3)C(c3ccccc3C(F)(F)F)C2)cc1 (stereo unspecified),7280
12,NS(=O)(=O)c1ccc(N2N=C(c3ccccc3)CC2c2ccc(Cl)cc2)cc1 (stereo unspecified),580
13,Cc1ccccc1C1CC(c2ccccc2)=NN1c1ccc(S(N)(=O)=O)cc1 (stereo unspecified),3510
14,NS(=O)(=O)c1ccc(N2N=C(c3ccccc3)CC2c2ccccc2Cl)cc1 (stereo unspecified),1530
15,COc1ccc(C2CC(c3ccccc3Cl)=NN2c2ccc(S(N)(=O)=O)cc2)cc1 (stereo unspecified),550
16,Cc1ccc(C2CC(c3ccccc3)=NN2c2ccc(S(N)(=O)=O)cc2)cc1 (stereo unspecified),1050
17,COc1ccccc1C1CC(c2ccccc2)=NN1c1ccc(S(N)(=O)=O)cc1 (stereo unspecified),4750
18,COc1ccc(C2CC(c3ccc(F)cc3)=NN2c2cccc(F)c2)cc1OC (stereo unspecified),4450
